Data on 17 compounds can be found in US20250129091A1, “THIENOPYRROLOTRIAZINE COMPOUNDS, THEIR PREPARATION AND THEIR THERAPEUTIC USE” (Sanofi, priority 2022, published 2025).

Experiment [1] deals with NLRP3 inflammasome. The experiment is described as follows: IL-1β secretion assay (LPS-primed, nigericin-activated THP-1 cells, MSD readout). The experiment is classed as cell-based. Conditions: read-out: IL1b IC50. An outline of the steps:
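THP-1 monocytes primed with LPS (10 ng/mL, 3 h, 37 °C), then co-incubated 2 h with serially diluted compound and nigericin 10 μM (final). Supernatant IL-1β measured by MSD electrochemiluminescence immunoassay. IC50 derived from four-parameter logistic fit of % inhibition versus concentration.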

The test system of experiment [2] is TNF-α secretion. The experiment is described as follows: TNF-α secretion assay (PMA-differentiated THP-1 cells, LPS-triggered, MSD readout). The note with it: LPS 24 h; for inhibition at 3 µM / inhibition at 10 µM: Homo sapiens. The experiment is classed as cell-based. The protocol: Monocytic THP-1 cells (DSMZ) were maintained in RPMI media (RPMI 1640 Medium (1×) +10% FBS, biowest S181H). Cells were then differentiated at 160,000 cells per well in 96-well flat bottom cell culture plates with RPMI+0.1% Bovine Serum Albumin solution and 0.5 μM phorbol 12-myristate 13-acetate (PMA; Sigma, ref:P8139) overnight at 37° C. Experimental compounds were prepared and added as described above. TNF-α secretion was triggered by the addition of 0.5 μg/mL LPS (invivoGen, tlrl-3pelps) and cells were incubated for 24 h. 2.5 μL supernatant was removed, and TNF-α levels were monitored using an MSD assay (mesoscale, K15049) according to manufacturers' instructions.
IC50 values were calculated from the plot of percentage of inhibition versus the inhibitor concentration by a logistics fit according to: y=A2+(A1−A2)/(1+(x/IC50)^p) where y is the %-inhibition at the inhibitor concentration, x. A1 is the lowest inhibition value, i.e., 0%, and A2 the maximum inhibition value, i.e., 100%. The exponent, p, is the Hill coefficient. The curve fitting was conducted with an internally developed software.

Where [3] appears, read: Homo sapiens, THP-1, LPS-primed.

Where a name gives a salt, the structure may show the parent alone. Read-outs that look alike come from different tables or passages of the source.

For the compound `CC(C)c1nn(CC(=O)N[C@@H]2CCCN(C3CCC3)C2)c(=O)c2cc3cc(Br)sc3n12` [Example 31, (R)-2-(2-bromo-8-isopropyl-5-oxothieno[3′,2′:4,5]pyrrolo[1,2-d][1,2,4]triazin-6(5H)-yl)-N-(1-cyclobutylpiperidin-3-yl)acetamide 2,2,2-trifluoroacetate], the IC50 in experiment [1] (setting [3]) came out at 30 nM. Also, the inhibition at 3 µM in experiment [2] (compound at 3 μM) is 10.5%. Further, the inhibition at 10 µM in experiment [2] (compound at 10 μM) was 32.5%.
As for `CC(C)c1nn(CC(=O)Nc2cncs2)c(=O)c2cc3ccsc3n12` [Example 2, 2-(8-isopropyl-5-oxothieno[3′,2′:4,5]pyrrolo[1,2-d][1,2,4]triazin-6(5H)-yl)-N-(thiazol-5-yl) acetamide], the 50% inhibitory concentration (IC50) in experiment [1] (LPS-primed) is 577 nM. Also, in experiment [2] (compound at 3 μM), the “TNF-a inhibition @ 3 μM” value came to 3.3. Moreover, the “TNF-a inhibition @ 10 μM” value in experiment [2] (compound at 10 μM) is recorded as −51.5.
In the case of `O=C(Cn1nc(C2CC2)n2c(cc3ccsc32)c1=O)N[C@@H]1CCCN(C2CCC2)C1` [Example 20, (R)—N-(1-cyclobutylpiperidin-3-yl)-2-(8-cyclopropyl-5-oxothieno[3′,2′:4,5]pyrrolo[1,2-d][1,2,4]triazin-6(5H)-yl)acetamide], in experiment [1] (setting [3]), the IC50 was found to be 185 nM. In experiment [2] (compound at 3 μM), the inhibition at 3 µM was -6.1%. In experiment [2] (compound at 10 μM), the inhibition at 10 µM was -26%.
Take `CC(C)c1nn(CC(=O)N[C@@H]2CCCN(C3CC3)C2)c(=O)c2cc3ccsc3n12` [Example 4, (R)—N-(1-cyclopropylpiperidin-3-yl)-2-(8-isopropyl-5-oxothieno[3′,2′:4,5]pyrrolo[1,2-d][1,2,4]triazin-6(5H)-yl)acetamide]: the IC50 in experiment [1] (setting [3]) is 54 nM. In addition, in experiment [2] (compound at 3 μM), the inhibition at 3 µM is 21.5%. Moreover, the inhibition at 10 µM in experiment [2] (compound at 10 μM) was determined as 7.5%.
The like results for `CN1CCC[C@@H](NC(=O)Cn2nc(C3CC3)n3c(cc4ccsc43)c2=O)C1` [Example 24, (R)-2-(8-cyclopropyl-5-oxothieno[3′,2′:4,5]pyrrolo[1,2-d][1,2,4]triazin-6(5H)-yl)-N-(1-methylpiperidin-3-yl)acetamide formate] were, in that order, 2890 nM, 12% and 15.5%.
Turning to `C=O.CC(C)c1nn(CC(=O)N[C@@H]2CCCN(CCO)C2)c(=O)c2cc3ccsc3n12` [Example 19, (R)—N-(1-(2-hydroxyethyl)piperidin-3-yl)-2-(8-isopropyl-5-oxothieno [3′,2′:4,5]pyrrolo[1,2-d][1,2,4]triazin-6(5H)-yl)acetamide compound with formaldehyde], in experiment [1] (Homo sapiens, LPS-primed), the IC50 stood at 225 nM. In experiment [2] (compound at 3 μM), the inhibition at 3 µM stood at 27.7%. Besides, the inhibition at 10 µM in experiment [2] (compound at 10 μM) is -22.7%.
With `CC(C)CN1CCC[C@@H](NC(=O)Cn2nc(C(C)C)n3c(cc4ccsc43)c2=O)C1` [Example 14, (R)—N-(1-isobutylpiperidin-3-yl)-2-(8-isopropyl-5-oxothieno[3′,2′:4,5]pyrrolo[1,2-d][1,2,4]triazin-6(5H)-yl)acetamide], the IC50 in experiment [1] (setting [3]) is 237 nM. In addition, in experiment [2] (compound at 3 μM), the inhibition at 3 µM was -0.5%. Further, in experiment [2] (compound at 10 μM), the inhibition at 10 µM was -18.8%.
The like results for `O=C(Cn1nc(C2CC2)n2c(cc3cc(Cl)sc32)c1=O)N[C@@H]1CCCN(C2CC2)C1` [Example 13, (R)-2-(2-chloro-8-cyclopropyl-5-oxothieno[3′,2′:4,5]pyrrolo[1,2-d][1,2,4]triazin-6(5H)-yl)-N-(1-cyclopropylpiperidin-3-yl)acetamide] were, in that order, 168 nM, 5.2% and 22.2%.
As for `C[C@H](O)CN1CCC[C@@H](NC(=O)Cn2nc(C3CC3)n3c(cc4ccsc43)c2=O)C1` [Example 22, 2-(8-cyclopropyl-5-oxothieno[3′,2′:4,5]pyrrolo[1,2-d][1,2,4]triazin-6(5H)-yl)-N—((R)-1-((S)-2-hydroxypropyl)piperidin-3-yl)acetamide], the IC50 in experiment [1] (setting [3]) was 400 nM. Also, the inhibition at 3 µM in experiment [2] (compound at 3 μM) is -2.9%. Moreover, the inhibition at 10 µM in experiment [2] (compound at 10 μM) amounted to 14.5%.
The like results for `CC(C)c1nn(CC(=O)N[C@@H]2CCCN(CC3CCCC3)C2)c(=O)c2cc3ccsc3n12` [Example 17, (R)—N-(1-(cyclopentylmethyl)piperidin-3-yl)-2-(8-isopropyl-5-oxothieno[3′,2′:4,5]pyrrolo [1,2-d][1,2,4]triazin-6(5H)-yl)acetamide] were, in that order, 300 nM, 11.2% and 31.4%.
As for `CC(C)c1nn(CC(=O)N[C@@H]2CCCN(C)C2)c(=O)c2cc3cc(Cl)sc3n12` [Example 5, (R)-2-(2-chloro-8-isopropyl-5-oxothieno[3′,2′:4,5]pyrrolo[1,2-d][1,2,4]triazin-6(5H)-yl)-N-(1-methylpiperidin-3-yl)acetamide 2,2,2-trifluoroacetate], in experiment [1] (setting [3]), the IC50 stood at 1230 nM. Also, in experiment [2] (compound at 3 μM), the inhibition at 3 µM is -18.2%. Moreover, the inhibition at 10 µM in experiment [2] (compound at 10 μM) was -14.1%.
Turning to `CC(C)c1nn(CC(=O)NC2CN(C)CC(F)(F)C2)c(=O)c2cc3ccsc3n12` (centres unmarked) [Example 35, N-(5,5-difluoro-1-methylpiperidin-3-yl)-2-(8-isopropyl-5-oxothieno[3′,2′:4,5]pyrrolo[1,2-d][1,2,4]triazin-6(5H)-yl)acetamide], in experiment [2] (compound at 3 μM), the inhibition at 3 µM is 23%. The inhibition at 10 µM in experiment [2] (compound at 10 μM) came out at 5.7%.
Take `CC(C)c1nn(CC(=O)N[C@@H]2CCCN(CC(C)(C)O)C2)c(=O)c2cc3ccsc3n12` [Example 23, (R)—N-(1-(2-hydroxy-2-methylpropyl)piperidin-3-yl)-2-(8-isopropyl-5-oxothieno[3′,2′:4,5]pyrrolo[1,2-d][1,2,4]triazin-6(5H)-yl)acetamide formate]: in experiment [1] (setting [3]), the IC50 amounted to 311 nM. The inhibition at 3 µM in experiment [2] (compound at 3 μM) came to 1.8%. In experiment [2] (compound at 10 μM), the inhibition at 10 µM is 3.3%.
The like results for `CC(C)c1nn(CC(=O)N[C@@H]2CCCN(C)C2)c(=O)c2cc3cc(Br)sc3n12` [Example 8, (R)-2-(2-bromo-8-isopropyl-5-oxothieno[3′,2′:4,5]pyrrolo[1,2-d][1,2,4]triazin-6(5H)-yl)-N-(1-methylpiperidin-3-yl)acetamide] were, in that order, 801 nM, -10% and -21.8%.
The like results for `CC(C)c1nn(CC(=O)N[C@@H]2CCCN(C)C2)c(=O)c2cc3ccsc3n12` [Example 1, (R)-2-(8-isopropyl-5-oxothieno[3′,2′:4,5]pyrrolo[1,2-d][1,2,4]triazin-6(5H)-yl)-N-(1-methylpiperidin-3-yl)acetamide] were, in that order, 661 nM, -5.1% and -17.7%.
Regarding `O=C(Cn1nc(C2CC2)n2c(cc3ccsc32)c1=O)N[C@@H]1CCCN(C2CC2)C1` [Example 21, (R)-2-(8-cyclopropyl-5-oxothieno[3′,2′:4,5]pyrrolo[1,2-d][1,2,4]triazin-6(5H)-yl)-N-(1-cyclopropylpiperidin-3-yl)acetamide], the IC50 in experiment [1] (setting [3]) is 60 nM. The inhibition at 3 µM in experiment [2] (compound at 3 μM) was found to be 11.7%. Moreover, the inhibition at 10 µM in experiment [2] (compound at 10 μM) came out at 13.5%.
`CC(C)c1nn(CC(=O)N[C@@H]2CCCN(CC3CC3)C2)c(=O)c2cc3ccsc3n12` [Example 28, (R)—N-(1-(cyclopropylmethyl)piperidin-3-yl)-2-(8-isopropyl-5-oxothieno[3′,2′:4,5]pyrrolo [1,2-d][1,2,4]triazin-6(5H)-yl)acetamide formate]: in experiment [1] (setting [3]), the IC50 amounted to 775 nM. For the same compound, the inhibition at 3 µM in experiment [2] (compound at 3 μM) was found to be 34.4%. The inhibition at 10 µM in experiment [2] (compound at 10 μM) is -45.5%.

As usually defined, the IC50 is the midpoint of a concentration-inhibition curve. As a reminder, the inhibition is the change of the read-out against control, counted positive when it falls.
